Results as given in patent US7741323B2, “Indene derivatives and process for the preparation thereof” (Korea Research Institute of Chemical Technology, priority 2004, dated 2010).

Key:
[1] = Adverse side effects check (weight, heart weight, liver weight, GPT/GOT) in high fat diet C57/BL6J mice; format: in vivo; conditions: for GOT / GPT / Heart Weight / Liver Weight / Weight: high fat diet C57/BL6J mice, oral administration for 14 days
Experimental: To check possible adverse side effects caused by the administration of the compound, the weight, heart weight and liver weight of each mouse were measured. GPT and GOT values were also calculated by employing a kit available in the market.

[2] = tested on: C57/BL6J mice; assay: Suppression of blood glucose and insulin levels in high fat diet C57/BL6J mice; format: in vivo
From the text: Days 1, 3 and 5 were selected for intraperitoneal administration, and days 5, 10 and 14, for oral administration, to collect blood samples for measuring the blood glucose levels. […] Upon the completion of the oral administration for 14 days, the mice were fasted for 16 hrs to perform OGTT (Oral Glucose Tolerance Test) to determine the changes in insulin sensitivity induced by the oral administration. After administrating glucose to the mice at a dose of 2 g/kg orally, blood samples were collected at 0, 15, 30 60 and 120 minutes to measure blood glucose levels.
The extents of suppression of blood glucose and insulin levels were measured as mentioned above. To check possible adverse side effects caused by the administration of the compound, the weight, heart weight and liver weight of each mouse were measured. GPT and GOT values were also calculated by employing a kit available in the market.

[3] = tested on: ob/ob mice; assay: Effectiveness in lowering blood glucose level in ob/ob mice; format: in vivo
Experimental: The resulting solution was intraperitoneally administered to the mice at a dose of 50 mg/kg, once a day for 5 days, or orally administered to the mice, at a dose of 100 mg/kg, twice a day for 14 days. Days 1, 3 and 5 were selected for intraperitoneal administration, and days 5, 10 and 14, for oral administration, to collect blood samples for measuring the blood glucose levels. […] Upon the completion of the oral administration for 14 days, the mice were fasted for 16 hrs to perform OGTT (Oral Glucose Tolerance Test) to determine the changes in insulin sensitivity induced by the oral administration. After administrating glucose to the mice at a dose of 2 g/kg orally, blood samples were collected at 0, 15, 30 60 and 120 minutes to measure blood glucose levels.

[4] = target: T1, human PPARγ (Homo sapiens, UniProt P37231); assay: PPARγ activation test (GAL-4/luciferase reporter in NIH/3T3 cell); format: cell-based; conditions: GAL-4/human PPARγ LBD luciferase reporter, 24 hrs incubation
T1 construct: expressed in transfected cells; host or cells: NIH/3T3 cells (mouse fibroblasts)
T1 sequence (P37231 238-503 limits assumed): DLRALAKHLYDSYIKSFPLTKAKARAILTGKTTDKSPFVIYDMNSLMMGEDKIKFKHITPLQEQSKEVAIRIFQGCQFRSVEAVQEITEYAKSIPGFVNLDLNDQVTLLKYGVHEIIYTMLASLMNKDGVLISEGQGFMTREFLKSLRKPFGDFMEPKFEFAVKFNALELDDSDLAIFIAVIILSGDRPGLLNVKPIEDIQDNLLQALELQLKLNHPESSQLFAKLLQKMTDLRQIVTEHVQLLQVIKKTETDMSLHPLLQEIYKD
Experimental: The activity for PPARγ activation was examined as follows.
The vector fused with the ligand binding domain of a human PPARγ gene and the DNA binding site of a yeast GAL-4 gene, and luciferase reporter vector were simultaneously transfected in NIH/3T3 cell. The cells were cultured for 24 hrs. The solution containing the cells at a concentration of 2×10^4 cells/well was placed on a 96-well plate. Then, each of the test compounds of the present invention or the control group without test compounds was added thereto. After incubating for 24 hrs, the cells were subjected to lysis.

[5] = high fat diet C57/BL6J mice, after 14 days oral administration
[6] = high fat diet C57/BL6J mice, oral administration once a day for 14 days

Molecule | melting point [°C] | EC50 [4] [nM] | further results
1-hydroxy-6-(2-morpholine-4-yl-ethoxy)-1,3-diphenyl-1H-indene-2-carboxylic acid ethyl ester [Example 8] |  |  | GOT [1]: 39 ± 7.8 karmen; GPT [1]: 29 ± 3.2/ karmen; Heart Weight [1]: 0.123 ± 0.007 g; Liver Weight [1]: 1.06 ± 0.17 g; Weight [1]: 35 ± 1.1 g; side effects (weight gain, hepatotoxicity, cardiotoxicity) ([1]; summary of Tables 6, 7 and 8): no side effects such as weight gain, hepatotoxicity or cardiotoxicity; effect in lowering blood glucose and insulin levels ([2]; administered orally or intraperitoneally, summary of Tables 6, 7 and 8): excellent effect in lowering both blood glucose and insulin levels; % Inhibition, Oral Glucose Tolerance Test (Glucose) [2, 5]: 23.8%; % Inhibition, Oral Glucose Tolerance Test (Insulin) [2, 5]: 56.2%; % Inhibition, Blood glucose concentration [2, 6]: 30.0%; % Inhibition, Blood insulin concentration [2, 6]: 44.6%; % Inhibition, Oral Glucose Tolerance Test (Blood Glucose) ([3]; ob/ob mice after 14 days oral administration, fasted 16 hrs, glucose 2 g/kg orally, total blood glucose over 120 minutes): 10.2%; % Inhibition, blood glucose, Intraperitoneal Administration (50 mg/kg/day) ([3]; ob/ob mice, i.p. 50 mg/kg once a day for 5 days, relative to control): 32.0%; % Inhibition, blood glucose, Oral Administration (100 mg/kg/day) ([3]; ob/ob mice, oral 100 mg/kg twice a day for 14 days, relative to control): 23.7%
CC(C)OC(=O)C1=C(c2ccccc2)c2ccc(OCCN3CCOCC3)cc2/C1=[N+](/C)[O-] [Compound 8] | 79 to 81 | 25 | 
CC(C)NC(=O)C1=C(c2ccccc2)c2ccc(OCCCc3ccccc3)cc2/C1=[N+](/C)[O-] [Compound 38, 1-(trans-methylimino-N-oxy)-3-phenyl-6-(3-phenylpropoxy)-1H-indene-2-carboxylate isopropyl amide] |  | 170 | 
C/[N+]([O-])=C1\C(C(=O)NC2CCCCC2)=C(c2ccccc2)c2ccc(OCCCc3ccccc3)cc21 [Compound 39, 1-(trans-methylimino-N-oxy)-3-phenyl-6-(3-phenylpropoxy)-1H-indene-2-carboxylate cyclohexyl amide] |  | 45 | 
C/[N+]([O-])=C1\C(C(=O)NC2CCCCC2)=C(c2ccccc2)c2ccc(OCCN3CCOCC3)cc21 [Compound 41, 1-(trans-methylimino-N-oxy)-6-(2-morpholine-4-yl-ethoxy)-3-phenyl-1H-indene-2-carboxylate cyclohexyl amide] |  | 12 | 
CCOC(=O)C1=C(c2ccccc2)c2cc(OCCCc3ccccc3)ccc2/C1=[N+](/C)[O-] [Compound 42, 1-(trans-methylimino-N-oxy)-3-phenyl-5-(3-phenylpropoxy)-1H-indene-2-carboxylate ethyl ester] |  | 80 | 
CCOC(=O)C1=C(c2ccccc2)c2ccc(COCCc3ccccc3)cc2/C1=[N+](/C)[O-] [Compound 43, 1-(trans-methylimino-N-oxy)-6-phenethyloxymethyl-3-phenyl-1H-indene-2-carboxylate ethyl ester] |  | 80 | 
CCOC(=O)C1=C(c2ccccc2)c2cc3c(cc2/C1=[N+](/C)[O-])OCO3 [Compound 48, 1-(trans-methylimino-N-oxy)-5,6-methylenedioxy-1-oxo-3-phenyl-1H-indene-2-carboxylate ethyl ester] | 119 to 121 | 10 | 
C/[N+]([O-])=C1\C(C(N)=O)=C(c2ccccc2)c2ccc(OCCCc3ccccc3)cc21 [Compound 73, 1-(trans-methylimino-N-oxy)-3-phenyl-6-(3-phenylpropoxy)-1H-indene-2-carboxylate amide] |  | 110 | 
CCOC(=O)C1=C(c2ccccc2)c2ccc(CN3CCOCC3)cc2/C1=[N+](/C)[O-] [Compound 77, 1-(trans-methylimino-N-oxy)-6-morpholine-4-ylmethyl-3-phenyl-1H-indene-2-carboxylate ethyl ester] |  | 170 | 
CC(C)NC(=O)C1=C(c2ccccc2)c2ccc(OCCc3ccccn3)cc2/C1=[N+](/C)[O-] [Compound 80, 1-(trans-methylimino-N-oxy)-3-phenyl-6-(2-pyridine-2-ylethoxy)-1H-indene-2-carboxylate isopropyl amide] | 124 to 126 | 100 | 
C/[N+]([O-])=C1\C=C(c2ccccc2)c2ccc(OCCN3CCOCC3)cc21 [Compound 82, methyl-[6-(2-morpholine-4-ylethoxy)-3-phenylindene-1-yllidene]amine-N-oxide] | 122 to 123 |  | 
CC(C)NC(=O)C1=C(c2csc3ccccc23)c2ccc(OCCN3CCOCC3)cc2/C1=[N+](/C)[O-] [Compound 94, 3-benzo-[b]-thiophene-3-yl-1-(trans-methylimino-N-oxy)-6-(2-morpholine-4-ylethoxy)-1H-indene-2-carboxylate isopropyl amide] | 77 to 79 | 80 | 
CC(C)NC(=O)C1=C(c2ccccc2)c2cc(OCCc3ccccn3)ccc2/C1=[N+](/C)[O-] [Compound 99, 1-(trans-methylimino-N-oxy)-3-phenyl-5-(2-pyridine-2-ylethoxy)-1H-indene-2-carboxylate isopropyl amide] | 158 to 159 |  | 
CC(C)OC(=O)C1=C(c2ccccc2)c2ccc(OCCN3CCOCC3)cc2/C1=[N+](\C)[O-] [Compound 101, 1-(cis-methylimino-N-oxy)-6-(2-morpholine-4-ylethoxy)-3-phenyl-1H-indene-2-carboxylate isopropyl ester] | 153 to 155 |  | 
CN(CCOc1ccc(CC2SC(=O)NC2=O)cc1)c1ccccn1 (stereo not shown) [Rosiglitazone, reference compound] |  |  | GOT [1]: 70 ± 8.2 karmen; GPT [1]: 85 ± 12/ karmen; Heart Weight [1]: 0.140 ± 0.009 g; Liver Weight [1]: 1.56 ± 0.18 g; Weight [1]: 39 ± 1.6 g

Now from value to molecule, other results behind:

melting point [°C] | EC50 [4] [nM] | Molecule | further results
 | 150 | CCOC(=O)C1=C(c2ccccc2)c2ccc(OCCCCCc3ccccc3)cc2/C1=[N+](/C)[O-] [Compound 15, 1-(trans-methylimino-N-oxy)-3-phenyl-6-(5-phenylpentyloxy)-1H-indene-2-carboxylate ethyl ester] | 
 | 50 | CCOC(=O)C1=C(c2ccccc2)c2ccc(OCCC3CCCCC3)cc2/C1=[N+](/C)[O-] [Compound 25, 6-(2-cyclohexylethoxy)-1-(trans-methylimino-N-oxy)-3-phenyl-1H-indene-2-carboxylate ethyl ester] | 
102 to 104 |  | CCOC(=O)C1=C(c2ccccc2)c2ccc(OCCN3CCOCC3)cc2/C1=[N+](/C)[O-] [Compound 33, 1-(trans-methylimino-N-oxy)-6-(2-morpholine-4-ylethoxy)-3-phenyl-1H-indene-2-carboxylate ethyl ester] | 
151 to 152 |  | CCOC(=O)C1=C(c2ccccc2)c2ccc(OCCN3CCOCC3)cc2/C1=[N+](\C)[O-] [Compound 45, 1-(cis-methylimino-N-oxy)-6-(2-morpholine-4-ylethoxy)-3-phenyl-1H-indene-2-carboxylate ethyl ester] | 
123 to 125 | 200 | CC(C)NC(=O)C1=C(c2ccccc2)c2ccc(OCCN3CCOCC3)cc2/C1=[N+](/C)[O-] [Compound 50, 1-(trans-methylimino-N-oxy)-6-(2-morpholine-4-ylethoxy)-3-phenyl-1H-indene-2-carboxylate isopropyl amide] | 
 | 10 | CCOC(=O)C1=C(C2CC2)c2ccc(OCCCc3ccccc3)cc2/C1=[N+](/C)[O-] [Compound 68, 3-cyclopropyl-1-(trans-methylimino-N-oxy)-6-(3-phenylpropoxy)-1H-indene-2-carboxylate ethyl ester] | 
126 to 128 | 95 | C/[N+]([O-])=C1\C(C#N)=C(c2ccccc2)c2ccc(OCCCc3ccccc3)cc21 [Compound 75, 1-(trans-methylimino-N-oxy)-3-phenyl-6-(3-phenylpropoxy)-1H-indene-2-carbonitrile] | 
 | 20 | CCOC(=O)C1=C(c2ccccc2)c2ccc(OCCc3ccc(CC)cn3)cc2/C1=[N+](/C)[O-] [Compound 79, 6-[2-(5-ethylpyridine-2-yl)ethoxy]-1-(trans-methylimino-N-oxy)-3-phenyl-1H-indene-2-carboxylate ethyl ester] | 
 | 45 | CCc1ccc(CCOc2ccc3c(c2)/C(=[N+](/C)[O-])C(C(=O)NC(C)C)=C3c2ccccc2)nc1 [Compound 81, 6-[2-(5-ethylpyridine-2-yl)ethoxy]-1-(trans-methylimino-N-oxy)-3-phenyl-1H-indene-2-carboxylate isopropyl amide] | 
134 to 137 |  | CC(C)NC(=O)C1=C(c2ccccc2)c2cc(OCCN3CCOCC3)ccc2/C1=[N+](/C)[O-] [Compound 100, 1-(trans-methylimino-N-oxy)-5-(2-morpholine-4-ylethoxy)-3-phenyl-1H-indene-2-carboxylate isopropyl amide] | 
